Results from the CheMixHub viscosity set.

Assay: xn = mol fraction of the nth substance listed

C=C(C)[C@@H]1CC=C(C)CC1 + CCCCCC
298.15 K, 101.33 kPa
Details | viscosity [mPa·s]
x2 = 0.0279 | 0.825
x2 = 0.0568 | 0.806
x2 = 0.113 | 0.759
x2 = 0.2079 | 0.686
x2 = 0.2991 | 0.622
x2 = 0.4219 | 0.549
x2 = 0.5543 | 0.477
x2 = 0.6701 | 0.421
x2 = 0.7542 | 0.386
x2 = 0.8966 | 0.334
x2 = 0.9273 | 0.326
x2 = 0.972 | 0.305

CC(C)CC(C)(C)C + CCCCCC
298.15 K, 101 kPa
Details | viscosity [mPa·s]
x1 = 0.05688 | 0.3093
x1 = 0.1612 | 0.3278
x1 = 0.2742 | 0.3441
x1 = 0.3413 | 0.3538
x1 = 0.4585 | 0.373
x1 = 0.5556 | 0.3897
x1 = 0.6116 | 0.3995
x1 = 0.7348 | 0.4226
x1 = 0.7874 | 0.4329
x1 = 0.852 | 0.4445
x1 = 0.9128 | 0.4582
x1 = 0.9559 | 0.4674
x2 = 0.03385 | 0.484

O=C1CCCCC1 + CCCCCC
viscosity [mPa·s]
Details | 298.15 K | 303.15 K | 308.15 K
101 kPa, x1 = 0.0863 | 0.364 | – | –
101 kPa, x1 = 0.2109 | 0.421 | – | –
101 kPa, x1 = 0.3038 | 0.474 | – | –
101 kPa, x1 = 0.4007 | 0.542 | – | –
101 kPa, x1 = 0.463 | 0.598 | – | –
101 kPa, x1 = 0.6023 | 0.773 | – | –
101 kPa, x1 = 0.6701 | 0.833 | – | –
101 kPa, x1 = 0.7991 | 1.185 | – | –
101 kPa, x1 = 0.872 | 1.398 | – | –
101.33 kPa, x1 = 0.1011 | 0.335 | 0.318 | 0.305
101.33 kPa, x1 = 0.2012 | 0.381 | 0.361 | 0.343
101.33 kPa, x1 = 0.3052 | 0.445 | 0.418 | 0.396
101.33 kPa, x1 = 0.4029 | 0.514 | 0.483 | 0.458
101.33 kPa, x1 = 0.5011 | 0.607 | 0.57 | 0.537
101.33 kPa, x1 = 0.6043 | 0.732 | 0.684 | 0.641
101.33 kPa, x1 = 0.7032 | 0.898 | 0.834 | 0.779
101.33 kPa, x1 = 0.8003 | 1.131 | 1.033 | 0.961
101.33 kPa, x1 = 0.8989 | 1.441 | 1.322 | 1.22

CC(=O)CC(C)C + CCCCCCC
298.15 K, 101 kPa
Details | viscosity [mPa·s]
x1 = 0.1142 | 0.39
x1 = 0.2052 | 0.397
x1 = 0.3088 | 0.407
x1 = 0.4417 | 0.424
x1 = 0.5341 | 0.438
x1 = 0.6443 | 0.458
x1 = 0.7444 | 0.478
x1 = 0.8854 | 0.511
